One may read the IC50 as the concentration needed to halve the response being measured.

Among the data in ChEMBL document CHEMBL1156643, “Kempopeptins A and B, serine protease inhibitors with different selectivity profiles from a marine cyanobacterium, Lyngbya sp” (J Nat Prod, 2008) are IC50 values, retold here.

Molecules are shown by their SMILES. Where only a bound is given, the exact number is not on record here.

One experiment deals with Pancreatic elastase (Sus scrofa, UniProt P08419+P00772). Briefly: Inhibition of pig pancreatic elastase. The format is protein assay.
Experiment [1] can be described thus: Inhibition of bovine alpha chymotrypsin. Further details: species or system Bos taurus.
Experiment [2] can be described thus: Inhibition of pig pancreatic trypsin. Also noted: species or system Sus scrofa.

With `CC(=O)N1CCC[C@H]1C(=O)N[C@H](C(=O)N[C@@H]1C(=O)N[C@@H](CC(C)C)C(=O)N[C@H]2CC[C@@H](O)N(C2=O)[C@@H](Cc2ccccc2)C(=O)N(C)[C@@H](Cc2ccc(O)cc2)C(=O)N[C@@H](C(C)C)C(=O)O[C@@H]1C)[C@@H](C)O` [KEMPOPEPTIN A], the figures for the IC50 (on Pancreatic elastase; in experiment [1]; in experiment [2]) were 2.6 µM, 0.32 µM and greater than 67 µM, respectively.

For the compound `CCCC(=O)N[C@H](C(=O)N[C@@H]1C(=O)N[C@@H](CCCCN)C(=O)N[C@H]2CC[C@@H](O)N(C2=O)[C@@H]([C@@H](C)CC)C(=O)N(C)[C@@H](Cc2ccc(OC)c(Br)c2)C(=O)N[C@@H](C(C)C)C(=O)O[C@@H]1C)C(C)C` [KEMPOPEPTIN B], the IC50 is greater than 67 µM on Pancreatic elastase, greater than 67 µM in experiment [1] and 8.4 µM in experiment [2].

As for `C/C=C1\NC(=O)[C@@H](NC(=O)[C@H](CCC(N)=O)NC(=O)CCCCC)[C@@H](C)OC(=O)[C@H](C(C)C)NC(=O)[C@H](Cc2ccc(O)cc2)N(C)C(=O)[C@H](Cc2ccccc2)N2C(=O)[C@H](CC[C@H]2O)NC1=O` [LYNGBYASTATIN 7], the IC50 in experiment [2] was greater than 30 µM.

Take `C/C=C1\NC(=O)[C@@H](NC(=O)[C@H](CCC(N)=O)NC(=O)CCC)[C@@H](C)OC(=O)[C@H](C(C)C)NC(=O)[C@H](Cc2ccc(O)cc2)N(C)C(=O)[C@H](Cc2ccccc2)N2C(=O)[C@H](CC[C@H]2O)NC1=O` [SOMAMIDE B]: the values for the IC50 (against Pancreatic elastase; in experiment [1]; in experiment [2]) were 4.2 µM, 0.0095 µM and greater than 30 µM, respectively.
